Usually IC50 stands for the point on the concentration scale where inhibition reaches its midpoint. Higher therefore signals a need for much substance.

Several values for one entry are separate records, joined by “and”; a condition that tells them apart may be missing. Identical values can stand only once.

From BindingDB's records for patent US20250313563 (The Broad Institute, 2025) come the findings set out here.

Assay [1] has as its target Glycogen synthase kinase-3 beta (Homo sapiens, UniProt P49841). Nature of the assay: TR-FRET Assay. An outline of the steps: (§1)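 TR-FRET readout: streptavidin-d2 (40 nM in added detection mix) plus Tb-anti-pSer641 Ab (2 nM in mix). Steps were 30 min compound preincubation, kinase reaction, then EDTA stop.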
For orientation: TR-FRET usually uses a lanthanide donor and a delayed reading to cut background.

In assay [2] the target is Glycogen synthase kinase-3 alpha (Homo sapiens, UniProt P49840). Put plainly: TR-FRET Assay. An outline of the steps: as §1
Chain of Glycogen synthase kinase-3 alpha (P49840 whole entry): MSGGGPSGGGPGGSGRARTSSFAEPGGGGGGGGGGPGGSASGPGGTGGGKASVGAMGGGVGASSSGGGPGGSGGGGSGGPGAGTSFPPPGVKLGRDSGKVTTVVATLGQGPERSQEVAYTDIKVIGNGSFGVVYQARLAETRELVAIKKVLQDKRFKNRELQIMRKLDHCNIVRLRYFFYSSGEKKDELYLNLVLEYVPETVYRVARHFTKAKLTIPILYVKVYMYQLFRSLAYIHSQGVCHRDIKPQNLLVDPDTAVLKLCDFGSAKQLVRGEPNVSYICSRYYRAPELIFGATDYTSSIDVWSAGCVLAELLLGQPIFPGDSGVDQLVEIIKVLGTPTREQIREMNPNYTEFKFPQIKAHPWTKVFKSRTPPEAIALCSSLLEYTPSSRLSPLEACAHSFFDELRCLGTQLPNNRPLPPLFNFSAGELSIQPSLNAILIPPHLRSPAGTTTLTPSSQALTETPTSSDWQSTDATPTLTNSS

Chain of Glycogen synthase kinase-3 beta (P49841 whole entry): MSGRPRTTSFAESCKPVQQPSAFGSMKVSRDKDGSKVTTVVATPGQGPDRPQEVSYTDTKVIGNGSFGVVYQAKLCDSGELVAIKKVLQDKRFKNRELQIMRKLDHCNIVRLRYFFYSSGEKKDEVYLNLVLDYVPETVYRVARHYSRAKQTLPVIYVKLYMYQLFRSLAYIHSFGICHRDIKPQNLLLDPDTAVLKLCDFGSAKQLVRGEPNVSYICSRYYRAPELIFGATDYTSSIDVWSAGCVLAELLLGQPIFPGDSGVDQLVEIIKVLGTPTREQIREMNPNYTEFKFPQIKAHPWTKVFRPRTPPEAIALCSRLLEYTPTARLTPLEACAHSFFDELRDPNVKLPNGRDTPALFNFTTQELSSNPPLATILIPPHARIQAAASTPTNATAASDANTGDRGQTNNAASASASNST

Turning to `CCC1(c2cccc(N(C)c3ncccn3)c2)C2=C(CC(C)(C)NC2=O)NC2N=NC(C(F)(F)F)=C21` (configuration not stated) [US20250313563, Compound 948176], the IC50 in assay [1] and in assay [2] was < 100 nM throughout.
`CC1(C)CC(=O)C2=C(C1)NC1=C(CN=N1)[C@]21CCc2c(F)cccc21` [US20250313563, Compound 806633]: the IC50 is 100 to 1000 nM in assay [1] and < 100 nM in assay [2].
Turning to `CC[C@@]1(c2cccc(C(F)(F)F)c2)C2=C(N=NC2)NC2=C1C(=O)N[C@H]2C` [US20250313563, Compound 945381], the IC50 in assay [1] and in assay [2] was > 5000 nM in each case.
Regarding `CC[C@]1(c2cccc(-c3cnn(C)c3)c2)C2=CN=NC2NC2=C1C(=O)CC(C)(C)C2` (some centres not stated) [US20250313563, Compound 819577], the IC50 in assay [1] and in assay [2] was 100 to 1000 nM in each case.
Take `CC[C@@]1(c2cccc(-c3cncn3C)c2)C2=CN=NC2NC2=C1C(=O)CC(C)(C)C2` (some centres not stated) [US20250313563, Compound 945605]: the IC50 in assay [1] and in assay [2] was < 100 nM throughout.
Consider `CC1(C)CC(=O)C2=C(C1)NC1=C(CN=N1)C21CCN(S(=O)(=O)CC2CC2)CC1` [US20250313563, Compound 909207], for which the IC50 in assay [1] was < 100 nM and 100 to 1000 nM; in assay [2], < 100 nM.
In the case of `CCC1(c2cccc(-c3ccncc3F)c2)C2=C(CC(C)(C)NC2=O)NC2N=NC(C(F)(F)F)=C21` (configuration not stated) [US20250313563, Compound 947866], the IC50 in assay [1] and in assay [2] was < 100 nM in each case.
On to `CC[C@@]1(c2cccc(-c3ccccc3)c2)C2=CN=NC2NC2=C1C(=O)CC(C)(C)C2` (some centres not stated) [US20250313563, Compound 801368], for which the IC50 in assay [1] was 100 to 1000 nM; in assay [2], < 100 nM.
In the case of `CC(C)[C@H]1C[C@@]2(CCO1)C1=C(N=NC1)NC1=C2C(=O)CC(C)(C)C1` [US20250313563, Compound 884014], the IC50 in assay [1] is > 5000 nM; in assay [2], 1000 to 5000 nM.
For `CC1(C)CC(=O)C2=C(C1)NC1=C(CN=N1)[C@]21CCO[C@H](C(F)(F)F)C1` [US20250313563, Compound 884023] the same measures were > 5000 nM and 1000 to 5000 nM.
The corresponding values for `CC[C@@]1(c2cccc(N3CCC3(C)C)c2)C2=CN=NC2NC2=C1C(=O)CC(C)(C)C2` (some centres not stated) [US20250313563, Compound 913141] are 1000 to 5000 nM and 100 to 1000 nM.
Consider `CC[C@@]1(c2cccc(C3=CNN4CC=CN=C34)c2)C2=CN=NC2NC2=C1C(=O)NC(C)(C)C2` (some centres not stated) [US20250313563, Compound 950830], for which the values for the IC50 in assay [1] and in assay [2] were 100 to 1000 nM and < 100 nM, respectively.
For `CC[C@@]1(c2cccc(C(F)(F)F)c2)C2=C(N=NC2)NC2=C1C(=O)N(Cc1ccccc1)[C@H]2C` [US20250313563, Compound 930333] the same measures were > 5000 nM and > 5000 nM.
For `CCC1(c2cccc(S(=O)(=O)C(C)C)c2)C2=C(CC(C)(C)NC2=O)NC2N=NC(C)=C21` (configuration not stated) [US20250313563, Compound 947396] the same measures were < 100 nM and < 100 nM.
As to `CC[C@@]1(c2cccc(-c3cnn(C(F)F)c3)c2)C2=CN=NC2NC2=C1C(=O)NC(C)(C)C2` (some centres not stated) [US20250313563, Compound 950254], the values for the IC50 in assay [1] and in assay [2] were 1000 to 5000 nM and < 100 nM, respectively.
Consider `Cn1nccc1S(=O)(=O)N1CC2(C1)C1=C(N=NC1)NC1=C2C(=O)CC(C)(C)C1` [US20250313563, Compound 932648], for which the IC50 in assay [1] and in assay [2] was < 100 nM in each case.
On to `CC[C@H]1C[C@]2(CO1)C1=C(N=NC1)NC1=C2C(=O)CC(C)(C)C1` [US20250313563, Compound 913214], for which the figures for the IC50 in assay [1] and in assay [2] were 1000 to 5000 nM and 100 to 1000 nM, respectively.
The corresponding values for `CC[C@@]1(c2cccc(-c3c(F)cncc3OC)c2)C2=CN=NC2NC2=C1C(=O)CC(C)(C)C2` (some centres not stated) [US20250313563, Compound 947512] are 100 to 1000 nM and < 100 nM.
For the molecule `CC[C@]1(c2cccc(-c3cc(OC)nc4ccccc34)c2)C2=CN=NC2NC2=C1C(=O)NC(C)(C)C2` (some centres not stated) [US20250313563, Compound 948647], the IC50 in assay [1] and in assay [2] was > 5000 nM throughout.
Regarding `CC1(C)CC(=O)C2=C(C1)NC1=C(CN=N1)[C@@]2(C)c1cc(C(F)(F)F)ccc1F` [US20250313563, Compound 816797], the IC50 in assay [1] was > 5000 nM; in assay [2], 1000 to 5000 nM.
`CCC1(c2cccc(Oc3ncccn3)c2)C2=CN=NC2NC2=C1C(=O)CC(C)(C)C2` (configuration not stated) [US20250313563, Compound 947400]: the IC50 in assay [1] and in assay [2] was < 100 nM in each case.
Turning to `CCC1(c2cccc(C(F)(F)F)c2)C2=CN=NC2NC2=C1C(=O)N(c1ncn(C)c1C)CC2` (configuration not stated) [US20250313563, Compound 951598], the IC50 in assay [1] is > 5000 nM; in assay [2], 100 to 1000 nM.
Turning to `CCC1(c2cccc(-c3cn(C)nc3C)c2)C2=C(CC(C)(C)NC2=O)NC2N=NC(Cl)=C21` (configuration not stated) [US20250313563, Compound 948768], the IC50 in assay [1] and in assay [2] was < 100 nM each time.
`CC[C@@]1(c2cccc(C3=C(C)SN(C)C3)c2)C2=CN=NC2NC2=C1C(=O)NC1(CCC1)C2` (some centres not stated) [US20250313563, Compound 950056]: the IC50 in assay [1] was > 5000 nM; in assay [2] it was 100 to 1000 nM.
For the molecule `CC[C@@]1(c2cccc(-c3c(F)cncc3Cl)c2)C2=CN=NC2NC2=C1C(=O)NC(C)(C)C2` (some centres not stated) [US20250313563, Compound 948371], the IC50 in assay [1] is < 100 nM and 100 to 1000 nM; in assay [2], < 100 nM and 100 to 1000 nM.
Regarding `CC1(C)CC(=O)C2=C(C1)NC1=C(CN=N1)C21CCN(S(=O)(=O)C2=CC=C3CC=CC=C3N2)CC1` [US20250313563, Compound 947476], the IC50 in assay [1] and in assay [2] was < 100 nM in each case.
With `CC[C@@]1(c2cccc(S(C)(=O)=O)c2)C2=CN=NC2NC2=C1C(=O)CC(C)(C)C2` (some centres not stated) [US20250313563, Compound 826719], the IC50 in assay [1] was > 5000 nM; in assay [2], 1000 to 5000 nM.
As to `CC[C@]1(c2cccc(N(C)c3ncccn3)c2)C2=CN=NC2NC2=C1C(=O)NC(C)(C)C2` (some centres not stated) [US20250313563, Compound 947825], the IC50 in assay [1] was > 5000 nM; in assay [2] it was 100 to 1000 nM.
For `CC[C@@]1(c2cccc(-c3cnn(C)c3C)c2)C2=C(CC(C)(C)NC2=O)NC2N=NC(C)=C21` (some centres not stated) [US20250313563, Compound 945731] the same measures were < 100 nM and < 100 nM.
Turning to `CC[C@]1(c2cccc(C(F)(F)F)c2)C2=CN=NC2NC2=C1C(=O)N(c1cc(C)n(C)n1)CC2` (some centres not stated) [US20250313563, Compound 951939], the IC50 was 100 to 1000 nM in assay [1] and < 100 nM in assay [2].
For `CC[C@]1(c2cccc(C(F)(F)F)c2)C2=CN=NC2NC2=C1C(=O)N(c1cnc(OC)nc1)[C@@H](C)C2` (some centres not stated) [US20250313563, Compound 949354] the same measures were 1000 to 5000 nM and 100 to 1000 nM.
The corresponding values for `C[C@H]1C[C@]2(CCN1S(=O)(=O)c1ccn(C)n1)C1=C(N=NC1)NC1=C2C(=O)CC(C)(C)C1` [US20250313563, Compound 926815] are < 100 nM and < 100 nM.
On to `CC[C@@]1(c2cccc(N(C)c3ncccn3)c2)C2=CN=NC2NC2=C1C(=O)NC(C)(C)C2` (some centres not stated) [US20250313563, Compound 947826], for which the IC50 in assay [1] and in assay [2] was < 100 nM in each case.
Take `CCC1(c2cccc(N3CCC[C@@H]3C)c2)C2=CN=NC2NC2=C1C(=O)CC(C)(C)C2` (some centres not stated) [US20250313563, Compound 885188]: the IC50 in assay [1] and in assay [2] was 100 to 1000 nM each time.
Turning to `CC1(C)CC(=O)C2=C(C1)NC1=C(CN=N1)C21CC2(CCCC2)C1` [US20250313563, Compound 874477], the IC50 was < 100 nM and 1000 to 5000 nM in assay [1]; < 100 nM and 100 to 1000 nM in assay [2].
On to `CCC1(c2cccc(C(F)(F)F)c2)C2=C(N=NC2)NC2=C1C(=O)N(C)C2` (configuration not stated) [US20250313563, Compound 917294], for which the IC50 was in the range of 1000 to 5000 nM in assay [1] and 100 to 1000 nM in assay [2].
For `CC1(C)CC(=O)C2=C(NC3=C(CN=N3)C23CCOCC3)[C@@H]1F` [US20250313563, Compound 883834], the values for the IC50 in assay [1] and in assay [2] were 1000 to 5000 nM and 100 to 1000 nM, respectively.
Regarding `CC1(C)CC(=O)C2=C(C1)NC1=C(CN=N1)C21CCN(S(=O)(=O)C2CC2)CC1` [US20250313563, Compound 901470], the IC50 is < 100 nM and 100 to 1000 nM in assay [1]; < 100 nM and 100 to 1000 nM in assay [2].
For `CC1(C)CC(=O)C2=C(C1)NC1=C(CN=N1)[C@@]21CCN(S(=O)(=O)c2cccc(F)c2)C1` [US20250313563, Compound 951862], the IC50 in assay [1] and in assay [2] was < 100 nM in each case.
On to `CCC1(c2cccc(N(C)C(=O)C3CCN(C)CC3)c2)C2=CN=NC2NC2=C1C(=O)CC(C)(C)C2` (configuration not stated) [US20250313563, Compound 912167], for which the IC50 is 1000 to 5000 nM in assay [1] and 100 to 1000 nM in assay [2].
Take `C[C@H]1C[C@@]2(CCN1S(=O)(=O)c1ccn(C)n1)C1=C(N=NC1)NC1=C2C(=O)CC(C)(C)C1` [US20250313563, Compound 926832]: the IC50 was 100 to 1000 nM in assay [1] and < 100 nM in assay [2].
The corresponding values for `CC[C@H]1CCN1c1cccc([C@]2(CC)C3=CN=NC3NC3=C2C(=O)CC(C)(C)C3)c1` (some centres not stated) [US20250313563, Compound 911972] are > 5000 nM and 1000 to 5000 nM.
With `CCC1(c2cccc(-c3ccnc(C)c3C)c2)C2=C(CC(C)(C)CC2=O)NC2N=NC(C(F)(F)F)=C21` (configuration not stated) [US20250313563, Compound 945529], the IC50 is < 100 nM and 100 to 1000 nM in assay [1]; < 100 nM in assay [2].
`CCC1(c2cccc(-c3ccnc(C)c3F)c2)C2=C(CC(C)(C)NC2=O)NC2N=NC(C(F)(F)F)=C21` (configuration not stated) [US20250313563, Compound 948297]: the IC50 in assay [1] and in assay [2] was < 100 nM in each case.
On to `CC1(C)CC(=O)C2=C(C1)NC1=C(CN=N1)C2(C)c1cc(F)cc(F)c1` (configuration not stated) [US20250313563, Compound 785735], for which the IC50 in assay [1] is > 5000 nM; in assay [2], 100 to 1000 nM.
With `CC[C@]1(c2cccc(-c3cnn(C)c3)c2)C2=C(CC(C)(C)NC2=O)NC2N=NC(C(F)F)=C21` (some centres not stated) [US20250313563, Compound 949911], the IC50 is > 5000 nM in assay [1] and 100 to 1000 nM in assay [2].
